Values joined by “and” are separate entries in the source; they are usually repeats but may differ in a detail not shown here. Equal entries are not always repeated.
What follows are molecules tested against T1, mAC5 (Homo sapiens, UniProt O95622) (assay: AC assay, Gsα-stimulated mAC5 in membranes from transfected HEK293 cells). Settings: 20µM fatty acid concentration.
T1 construct: Human mAC genes were from GenScript and fitted with a C-terminal FLAG-tag; FLAG (C); made in house; host or cells: HEK293, permanently transfected; membrane preparation
Type: biochemical
Method: (§1) hAC sequences were from NCBI were: ADCY1: NM_021116.3; ADCY2: NM_020546.2; ADCY3: NM_004036.4; ADCY4: NM_001198568.2; ADCY5: NM_183357.2; ADCY6: NM_015270.4; ADCY7: NM_001114.4; ADCY8: NM_001115.2; ADCY9: NM_001116.3. Human mAC genes were from GenScript and fitted with a C-terminal FLAG-tag. […] The gene was synthesized by GenScript. HEK293 cells were maintained in Dulbeccos Modified Eagle Medium (DMEM) with 10% fetal bovine serum at 37°C and 5% CO2. Transfection with AC plasmids was with PolyJet (SignaGen, Frederick, MD, USA). Permanent cell lines were generated by selection for 7 days with 600 µg/ml G418 and maintained with 300 µg/ml For membrane preparation, cells were tyrpsinized, collected by centrifugation (3000 × g, 5 min) and lysed and homogenized in 20 mM HEPES, pH 7.5, 1 mM Ethylenediaminetetraacetic acid (EDTA), 2 mM MgCl2, 1 mM Dithiothreitol (DTT), one tablet of cOmplete, EDTA-free (per 50 ml) and 250 mM sucrose by 20 strokes in a potter homogenizer on ice. Debris was removed (5 min at 1000 × g, 0°C), membranes were collected at 100,000 × g, 60 min at 0°C, suspended and stored at −80°C in 20 mM MOPS, pH 7.5, 0.5 mM EDTA, 2 mM MgCl2. […] Three cerebral cortices were dissected and homogenized in 4.5 ml cold 48 mM Tris–HCl, pH 7.4, 12 mM MgC1_2, and 0.1 mM Ethylene glycol-bis(β-aminoethyl ether)-N,N,N′,N′-tetraacetic acid (EGTA) with a Polytron hand disperser (Kinematica AG, Switzerland). […] The pellet was washed once with 5 ml 1 mM KHCO3. The final suspension in 2 ml 1 mM KHCO3 was stored in aliquots at −80°C.
(§2) In a volume of 10 μl, AC activities were measured using 1 mM ATP, 2 mM MgCl2, 3 mM creatine phosphate, 60 μg/ml creatine kinase, and 50 mM MOPS pH 7.5. The cAMP assay kit from Cisbio (Codolet, France) was used for detection according to the supplier’s instructions. For each assay, a cAMP standard curve was established. EC50 and IC50 values were calculated by GraphPad Prism version 8.4.3 for Windows, GraphPad Software, San Diego, CA, USA, https://www.graphpad.com .

Compound | mAC5 activity [%] (100% = 300nM Gsα stimulation)
CCCCCCCC/C=C\CCCCCCCC(=O)OC(CO)CO [2-Oleoylglycerol] | 96%
CC/C=C\C/C=C\C/C=C\C/C=C\C/C=C\CCCC(=O)O [EPA, Eicosapentaenoic ((5Z,8Z,11Z,14Z,17Z)-eicosapentaenoic) acid] | 101% and 83%
CC/C=C\C/C=C\C/C=C\CCCCCCCC(=O)O [Linolenic acid, Linolenic ((9Z,12Z,15Z)-octadecatrienoic) acid] | 79% and 81%

These molecules were tested against T2, mAC7 (Homo sapiens, UniProt P51828) (assay: AC assay, Gsα-stimulated mAC7 in membranes from transfected HEK293 cells). Settings: Figure 5-figure supplement 2 left, 20 µM.
T2 construct: Human mAC genes were from GenScript and fitted with a C-terminal FLAG-tag; FLAG (C); made in house; host or cells: HEK293, permanently transfected; membrane preparation
T2 sequence (P51828 whole entry): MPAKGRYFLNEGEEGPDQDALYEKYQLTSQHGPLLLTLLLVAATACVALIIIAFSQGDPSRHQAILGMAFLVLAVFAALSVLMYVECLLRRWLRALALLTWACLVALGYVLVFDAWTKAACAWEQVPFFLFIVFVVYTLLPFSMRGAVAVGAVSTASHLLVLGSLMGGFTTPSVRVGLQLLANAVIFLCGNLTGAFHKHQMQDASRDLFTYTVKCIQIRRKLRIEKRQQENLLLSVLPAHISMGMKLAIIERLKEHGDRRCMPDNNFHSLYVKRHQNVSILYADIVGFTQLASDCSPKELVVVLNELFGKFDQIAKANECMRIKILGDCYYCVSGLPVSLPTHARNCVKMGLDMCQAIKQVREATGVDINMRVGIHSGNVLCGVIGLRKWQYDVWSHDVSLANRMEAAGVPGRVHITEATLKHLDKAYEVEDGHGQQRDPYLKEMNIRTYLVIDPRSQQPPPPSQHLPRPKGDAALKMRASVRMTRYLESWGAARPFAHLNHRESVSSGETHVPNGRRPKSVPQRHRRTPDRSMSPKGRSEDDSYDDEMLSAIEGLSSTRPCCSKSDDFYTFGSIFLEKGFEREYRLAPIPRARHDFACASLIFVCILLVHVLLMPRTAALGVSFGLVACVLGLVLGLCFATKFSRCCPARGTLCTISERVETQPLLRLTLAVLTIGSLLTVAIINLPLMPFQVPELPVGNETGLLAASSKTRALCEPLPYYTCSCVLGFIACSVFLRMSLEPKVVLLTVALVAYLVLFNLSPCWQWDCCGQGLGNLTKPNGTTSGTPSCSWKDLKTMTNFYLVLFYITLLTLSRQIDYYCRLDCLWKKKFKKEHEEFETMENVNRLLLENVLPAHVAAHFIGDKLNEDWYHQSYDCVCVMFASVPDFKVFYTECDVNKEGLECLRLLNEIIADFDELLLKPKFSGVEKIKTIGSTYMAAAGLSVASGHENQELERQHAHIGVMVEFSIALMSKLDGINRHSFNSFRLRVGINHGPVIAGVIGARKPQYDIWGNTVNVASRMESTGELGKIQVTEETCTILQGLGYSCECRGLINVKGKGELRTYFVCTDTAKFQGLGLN
T2 sequence (P63092 2-394 Q227L partner): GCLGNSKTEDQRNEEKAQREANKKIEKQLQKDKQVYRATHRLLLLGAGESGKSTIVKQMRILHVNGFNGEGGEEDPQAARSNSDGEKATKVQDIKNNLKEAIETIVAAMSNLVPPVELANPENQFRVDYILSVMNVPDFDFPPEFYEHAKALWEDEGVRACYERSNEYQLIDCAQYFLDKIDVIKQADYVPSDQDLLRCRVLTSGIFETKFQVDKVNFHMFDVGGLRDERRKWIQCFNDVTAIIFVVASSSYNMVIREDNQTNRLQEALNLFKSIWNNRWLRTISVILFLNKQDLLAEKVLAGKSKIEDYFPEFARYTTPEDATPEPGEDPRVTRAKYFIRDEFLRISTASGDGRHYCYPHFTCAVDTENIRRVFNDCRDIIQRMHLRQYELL
Type: biochemical
Method: as §1, §2

Compound | mAC7 activity [%] (100% = 300nM Gsα stimulation); 20µM fatty acid concentration
CCCCCCCC/C=C\CCCCCCCC(=O)OC(CO)CO [2-Oleoylglycerol] | 93%
CC/C=C\C/C=C\C/C=C\C/C=C\C/C=C\CCCC(=O)O [EPA, Eicosapentaenoic ((5Z,8Z,11Z,14Z,17Z)-eicosapentaenoic) acid] | 113% and 166%

What follows are molecules tested against T3, mAC2 (Homo sapiens, UniProt Q08462) (assay: AC assay, Gsα-stimulated mAC2 in membranes from transfected HEK293 cells). Settings: Figure 5-figure supplement 1 left, 20 µM.
T3 construct: Human mAC genes were from GenScript and fitted with a C-terminal FLAG-tag; FLAG (C); made in house; host or cells: HEK293, permanently transfected; membrane preparation
T3 sequence (Q08462 whole entry): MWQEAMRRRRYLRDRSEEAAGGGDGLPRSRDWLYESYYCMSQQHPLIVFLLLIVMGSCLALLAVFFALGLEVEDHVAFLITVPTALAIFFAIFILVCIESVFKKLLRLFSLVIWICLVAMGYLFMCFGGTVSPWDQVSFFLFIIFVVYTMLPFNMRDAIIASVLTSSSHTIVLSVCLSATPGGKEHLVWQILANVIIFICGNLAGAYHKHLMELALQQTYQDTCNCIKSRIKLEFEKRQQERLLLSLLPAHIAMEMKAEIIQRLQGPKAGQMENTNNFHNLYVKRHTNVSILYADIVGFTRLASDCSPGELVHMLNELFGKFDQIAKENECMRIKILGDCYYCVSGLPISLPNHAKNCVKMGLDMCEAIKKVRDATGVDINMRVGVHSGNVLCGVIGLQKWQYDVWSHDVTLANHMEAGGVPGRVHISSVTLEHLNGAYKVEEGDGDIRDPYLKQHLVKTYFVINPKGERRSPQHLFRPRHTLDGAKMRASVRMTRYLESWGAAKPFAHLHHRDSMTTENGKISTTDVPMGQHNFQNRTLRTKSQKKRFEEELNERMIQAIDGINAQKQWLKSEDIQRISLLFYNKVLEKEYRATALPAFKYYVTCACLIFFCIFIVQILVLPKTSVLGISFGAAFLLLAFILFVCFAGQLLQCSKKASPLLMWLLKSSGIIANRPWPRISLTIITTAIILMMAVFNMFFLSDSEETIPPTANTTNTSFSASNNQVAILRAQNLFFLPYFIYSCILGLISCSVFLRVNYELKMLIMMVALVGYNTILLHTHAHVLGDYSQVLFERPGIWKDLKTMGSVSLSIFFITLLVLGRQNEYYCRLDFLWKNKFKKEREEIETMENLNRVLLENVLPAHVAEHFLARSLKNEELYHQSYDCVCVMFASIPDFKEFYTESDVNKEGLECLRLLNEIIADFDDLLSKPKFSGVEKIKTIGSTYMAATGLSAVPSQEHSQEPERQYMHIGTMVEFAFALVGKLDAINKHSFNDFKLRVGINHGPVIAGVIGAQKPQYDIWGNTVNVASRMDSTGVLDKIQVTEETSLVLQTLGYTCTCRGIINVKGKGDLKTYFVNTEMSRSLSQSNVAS
T3 sequence (P63092 2-394 Q227L partner): as the sequence (P63092 2-394 Q227L partner) above
Type: biochemical
Method: as §1, §2

Compound | mAC2 activity [%] (100% = 300nM Gsα stimulation); 20µM fatty acid concentration
CC/C=C\C/C=C\C/C=C\C/C=C\C/C=C\CCCC(=O)O [EPA, Eicosapentaenoic ((5Z,8Z,11Z,14Z,17Z)-eicosapentaenoic) acid] | 102% and 159%
CC/C=C\C/C=C\C/C=C\CCCCCCCC(=O)O [Linolenic acid, Linolenic ((9Z,12Z,15Z)-octadecatrienoic) acid] | 99% and 105%

These molecules were tested against T4, mAC9 (Homo sapiens, UniProt O60503) (assay: AC assay, Gsα-stimulated mAC9 in membranes from transfected HEK293 cells). Settings: 3 µM fatty acid; 300 nM Gsα; single experiments.
T4 construct: Human mAC genes were from GenScript and fitted with a C-terminal FLAG-tag; FLAG (C); made in house; host or cells: HEK293, permanently transfected; membrane preparation
Type: biochemical
Method: as §1, §2

Compound | mAC9 activity (%);(100% = Gsα stimulation) stimulated by 300nM Gsα
CC/C=C\C/C=C\C/C=C\CCCCCCCC(=O)O [Linolenic acid, Linolenic ((9Z,12Z,15Z)-octadecatrienoic) acid] | 144% and 110% and 75%

Same assay, conditions: 6 µM fatty acid; 300 nM Gsα; single experiments

Compound | mAC9 activity (%);(100% = Gsα stimulation) stimulated by 300nM Gsα
CC/C=C\C/C=C\C/C=C\CCCCCCCC(=O)O [Linolenic acid, Linolenic ((9Z,12Z,15Z)-octadecatrienoic) acid] | 125% and 149% and 124% and 119% and 96%

Same assay, conditions: 20 µM fatty acid; 300 nM Gsα; single experiments

Compound | mAC9 activity [%] (100% = 300nM Gsα stimulation); 20µM fatty acid concentration
CCCCCCCC/C=C\CCCCCCCC(=O)OC(CO)CO [2-Oleoylglycerol] | 131

Each molecule was assayed against T5, mAC3 (Homo sapiens, UniProt O60266) (assay: AC assay, Gsα-stimulated mAC3 in membranes from transfected HEK293 cells). Settings: 20 µM; in words.
T5 construct: Human mAC genes were from GenScript and fitted with a C-terminal FLAG-tag; FLAG (C); made in house; host or cells: HEK293, permanently transfected; membrane preparation
Type: biochemical
Method: as §1, §2

Compound | Effect of lipid on 300 nM Gsα-stimulated mAC3
CC/C=C\C/C=C\C/C=C\C/C=C\C/C=C\CCCC(=O)O [EPA, Eicosapentaenoic ((5Z,8Z,11Z,14Z,17Z)-eicosapentaenoic) acid] | less efficacious
CC/C=C\C/C=C\C/C=C\CCCCCCCC(=O)O [Linolenic acid, Linolenic ((9Z,12Z,15Z)-octadecatrienoic) acid] | less efficacious

Same assay, conditions: fatty acid 20 µM; individual experiments

Compound | mAC3 activity [%] (100% = 300nM Gsα stimulation)
CCCCCCCC/C=C\CCCCCCCC(=O)OC(CO)CO [2-Oleoylglycerol] | 72%
CC/C=C\C/C=C\C/C=C\C/C=C\C/C=C\CCCC(=O)O [EPA, Eicosapentaenoic ((5Z,8Z,11Z,14Z,17Z)-eicosapentaenoic) acid] | 169% and 200% and 266% and 160%
CC/C=C\C/C=C\C/C=C\CCCCCCCC(=O)O [Linolenic acid, Linolenic ((9Z,12Z,15Z)-octadecatrienoic) acid] | 159% and 177% and 241% and 105% and 288% and 273%

These molecules were tested against T6, mAC4 (Homo sapiens, UniProt Q8NFM4) (assay: AC assay, Gsα-stimulated mAC4 in membranes from transfected HEK293 cells). Settings: 20 µM fatty acid; 300 nM Gsα; single experiments.
T6 construct: Human mAC genes were from GenScript and fitted with a C-terminal FLAG-tag; FLAG (C); made in house; host or cells: HEK293, permanently transfected; membrane preparation
T6 sequence (Q8NFM4 1-1077): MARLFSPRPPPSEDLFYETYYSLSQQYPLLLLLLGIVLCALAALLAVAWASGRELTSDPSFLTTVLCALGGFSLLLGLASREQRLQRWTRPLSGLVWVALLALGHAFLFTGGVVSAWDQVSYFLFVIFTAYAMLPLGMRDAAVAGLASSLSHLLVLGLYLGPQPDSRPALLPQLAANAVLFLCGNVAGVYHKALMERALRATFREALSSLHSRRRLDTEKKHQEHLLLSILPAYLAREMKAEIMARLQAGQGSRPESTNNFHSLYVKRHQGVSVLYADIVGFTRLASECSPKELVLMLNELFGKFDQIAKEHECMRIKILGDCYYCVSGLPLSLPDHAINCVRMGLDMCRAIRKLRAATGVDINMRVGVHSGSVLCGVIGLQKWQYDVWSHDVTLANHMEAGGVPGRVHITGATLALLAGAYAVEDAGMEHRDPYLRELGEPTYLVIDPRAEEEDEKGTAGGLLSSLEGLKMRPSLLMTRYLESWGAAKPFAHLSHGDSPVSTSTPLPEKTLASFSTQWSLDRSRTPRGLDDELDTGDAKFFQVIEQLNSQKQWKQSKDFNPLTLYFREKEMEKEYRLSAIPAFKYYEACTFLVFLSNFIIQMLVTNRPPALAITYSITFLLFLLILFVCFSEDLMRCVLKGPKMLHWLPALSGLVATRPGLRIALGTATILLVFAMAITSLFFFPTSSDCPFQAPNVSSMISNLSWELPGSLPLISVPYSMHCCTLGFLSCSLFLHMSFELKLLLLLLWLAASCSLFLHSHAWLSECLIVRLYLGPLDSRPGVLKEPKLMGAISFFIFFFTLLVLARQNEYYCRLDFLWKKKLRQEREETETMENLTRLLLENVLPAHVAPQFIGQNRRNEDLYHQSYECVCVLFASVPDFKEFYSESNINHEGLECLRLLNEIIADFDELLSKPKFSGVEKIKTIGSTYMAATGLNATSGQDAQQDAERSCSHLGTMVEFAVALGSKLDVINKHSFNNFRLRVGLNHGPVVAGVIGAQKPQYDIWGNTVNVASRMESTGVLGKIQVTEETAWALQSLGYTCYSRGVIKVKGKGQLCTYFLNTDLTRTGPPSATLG
Type: biochemical
Method: as §1, §2

Compound | mAC4 activity [%] (100% = 300nM Gsα stimulation); 20µM fatty acid concentration
CC/C=C\C/C=C\C/C=C\CCCCCCCC(=O)O [Linolenic acid, Linolenic ((9Z,12Z,15Z)-octadecatrienoic) acid] | 62% and 65% and 86%

Same assay, conditions: 20 µM; in words

Compound | Effect of lipid on 300 nM Gsα-stimulated mAC4
CC/C=C\C/C=C\C/C=C\C/C=C\C/C=C\CCCC(=O)O [EPA, Eicosapentaenoic ((5Z,8Z,11Z,14Z,17Z)-eicosapentaenoic) acid] | no effect

Each molecule was assayed against T7, mAC1 (Homo sapiens, UniProt Q08828) (assay: AC assay, Gsα-stimulated mAC1 in membranes from transfected HEK293 cells). Settings: 20 µM fatty acid; 300 nM Gsα; single experiments.
T7 construct: Human mAC genes were from GenScript and fitted with a C-terminal FLAG-tag; FLAG (C); made in house; host or cells: HEK293, permanently transfected; membrane preparation
T7 sequence (Q08828 whole entry): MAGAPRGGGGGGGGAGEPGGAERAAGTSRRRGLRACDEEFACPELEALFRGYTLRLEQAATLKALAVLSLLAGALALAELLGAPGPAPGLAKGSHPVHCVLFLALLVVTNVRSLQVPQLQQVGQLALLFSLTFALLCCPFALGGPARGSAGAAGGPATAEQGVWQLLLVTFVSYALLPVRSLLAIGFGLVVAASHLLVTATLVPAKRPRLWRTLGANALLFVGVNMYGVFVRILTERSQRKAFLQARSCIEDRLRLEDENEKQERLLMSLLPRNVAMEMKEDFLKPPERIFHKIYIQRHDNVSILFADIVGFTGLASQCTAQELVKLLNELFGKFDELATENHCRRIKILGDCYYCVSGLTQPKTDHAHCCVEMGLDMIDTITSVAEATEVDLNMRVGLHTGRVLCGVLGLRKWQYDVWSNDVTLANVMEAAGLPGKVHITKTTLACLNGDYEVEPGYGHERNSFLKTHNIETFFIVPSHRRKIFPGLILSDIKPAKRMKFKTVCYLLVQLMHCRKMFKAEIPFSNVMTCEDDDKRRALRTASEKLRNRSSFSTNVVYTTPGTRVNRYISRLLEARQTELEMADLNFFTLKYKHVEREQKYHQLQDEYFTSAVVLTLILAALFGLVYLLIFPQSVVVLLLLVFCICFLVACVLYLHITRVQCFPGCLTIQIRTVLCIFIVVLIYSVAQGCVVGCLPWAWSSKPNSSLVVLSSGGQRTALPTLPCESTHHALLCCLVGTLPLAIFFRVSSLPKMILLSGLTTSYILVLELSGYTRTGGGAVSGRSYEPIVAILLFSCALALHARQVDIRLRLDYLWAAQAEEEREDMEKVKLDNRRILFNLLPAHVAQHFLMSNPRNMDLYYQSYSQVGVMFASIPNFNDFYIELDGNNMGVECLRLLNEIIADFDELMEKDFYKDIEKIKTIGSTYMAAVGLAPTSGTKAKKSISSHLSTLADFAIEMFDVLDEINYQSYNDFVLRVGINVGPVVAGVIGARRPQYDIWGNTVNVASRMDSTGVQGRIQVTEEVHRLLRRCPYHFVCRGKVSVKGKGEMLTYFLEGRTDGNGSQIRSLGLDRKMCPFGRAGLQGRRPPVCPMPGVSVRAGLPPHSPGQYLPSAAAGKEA
Type: biochemical
Method: as §1, §2

Compound | mAC1 activity [%] (100% = 300nM Gsα stimulation); 20µM fatty acid concentration
CC/C=C\C/C=C\C/C=C\C/C=C\C/C=C\CCCC(=O)O [EPA, Eicosapentaenoic ((5Z,8Z,11Z,14Z,17Z)-eicosapentaenoic) acid] | 99% and 107% and 86% and 87%
CC/C=C\C/C=C\C/C=C\CCCCCCCC(=O)O [Linolenic acid, Linolenic ((9Z,12Z,15Z)-octadecatrienoic) acid] | 63% and 90%

Same assay, conditions: 20 µM; in words

Compound | Effect of lipid on 300 nM Gsα-stimulated mAC1
CC/C=C\C/C=C\C/C=C\C/C=C\C/C=C\CCCC(=O)O [EPA, Eicosapentaenoic ((5Z,8Z,11Z,14Z,17Z)-eicosapentaenoic) acid] | no effect

Each molecule was assayed against T8, mAC6 (Homo sapiens, UniProt O43306) (assay: AC assay, Gsα-stimulated mAC6 in membranes from transfected HEK293 cells). Settings: 20µM fatty acid concentration.
T8 construct: Human mAC genes were from GenScript and fitted with a C-terminal FLAG-tag; FLAG (C); made in house; host or cells: HEK293, permanently transfected; membrane preparation
T8 sequence (O43306 whole entry): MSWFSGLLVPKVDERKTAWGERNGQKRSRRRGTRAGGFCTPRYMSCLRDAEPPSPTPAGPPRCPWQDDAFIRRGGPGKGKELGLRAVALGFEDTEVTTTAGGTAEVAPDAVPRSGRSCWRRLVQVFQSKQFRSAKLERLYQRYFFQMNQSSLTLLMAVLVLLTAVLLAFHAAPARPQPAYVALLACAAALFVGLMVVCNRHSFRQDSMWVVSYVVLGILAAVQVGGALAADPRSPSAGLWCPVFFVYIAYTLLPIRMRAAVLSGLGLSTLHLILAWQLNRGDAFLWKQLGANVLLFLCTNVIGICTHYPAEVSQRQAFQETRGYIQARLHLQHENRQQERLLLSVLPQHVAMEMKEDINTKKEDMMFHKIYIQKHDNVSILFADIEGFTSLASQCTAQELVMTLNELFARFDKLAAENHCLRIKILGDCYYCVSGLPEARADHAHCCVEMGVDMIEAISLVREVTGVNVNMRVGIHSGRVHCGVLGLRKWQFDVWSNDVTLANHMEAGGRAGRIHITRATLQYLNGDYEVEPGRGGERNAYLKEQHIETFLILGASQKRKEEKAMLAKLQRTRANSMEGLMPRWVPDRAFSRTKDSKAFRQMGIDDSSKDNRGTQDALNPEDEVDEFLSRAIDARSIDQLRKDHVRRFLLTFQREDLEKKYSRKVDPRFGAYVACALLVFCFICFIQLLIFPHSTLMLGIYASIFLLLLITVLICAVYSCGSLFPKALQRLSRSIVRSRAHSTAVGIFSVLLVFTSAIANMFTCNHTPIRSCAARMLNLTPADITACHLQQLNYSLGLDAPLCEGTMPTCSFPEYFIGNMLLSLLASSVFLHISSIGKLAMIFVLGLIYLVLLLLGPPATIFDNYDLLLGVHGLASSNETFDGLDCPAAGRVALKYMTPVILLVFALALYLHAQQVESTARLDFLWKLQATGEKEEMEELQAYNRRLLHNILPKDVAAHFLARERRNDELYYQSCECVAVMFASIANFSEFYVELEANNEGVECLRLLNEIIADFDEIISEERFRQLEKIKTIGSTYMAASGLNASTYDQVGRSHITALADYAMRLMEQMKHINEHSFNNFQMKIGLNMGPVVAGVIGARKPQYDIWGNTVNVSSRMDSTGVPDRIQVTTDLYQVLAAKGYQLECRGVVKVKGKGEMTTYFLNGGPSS
Type: biochemical
Method: as §1, §2

Compound | mAC6 activity [%] (100% = 300nM Gsα stimulation)
CC/C=C\C/C=C\C/C=C\C/C=C\C/C=C\CCCC(=O)O [EPA, Eicosapentaenoic ((5Z,8Z,11Z,14Z,17Z)-eicosapentaenoic) acid] | 112% and 108%
CC/C=C\C/C=C\C/C=C\CCCCCCCC(=O)O [Linolenic acid, Linolenic ((9Z,12Z,15Z)-octadecatrienoic) acid] | 103% and 104%

— article PMC11606603, “The membrane domains of mammalian adenylyl cyclases are lipid receptors” (eLife, 2024)
